Laboratory results taken from article PMC9101642 (Molecules, 2022).
Like-named read-outs stand apart in the source and are kept apart here. Marks after values point to notes of the source that are not given here.

Columns and labels:
ERα = target: T1, ERα (Homo sapiens, UniProt P03372); assay: Fluorescence polarization competition assay: antagonistic potency and relative binding affinity; details: for Ki: calculated antagonistic (inhibitory) constant, read-out: Ka ERα; for IC50: concentration that antagonizes 50% of ERα signaling activity, read-out: ERα (IC50 nM); for logRBA ERα: log of % relative binding affinity, estradiol = 100%; for ERα potency, fold higher than Ral: ratio of IC50 values
T1 sequence (P03372 1-595): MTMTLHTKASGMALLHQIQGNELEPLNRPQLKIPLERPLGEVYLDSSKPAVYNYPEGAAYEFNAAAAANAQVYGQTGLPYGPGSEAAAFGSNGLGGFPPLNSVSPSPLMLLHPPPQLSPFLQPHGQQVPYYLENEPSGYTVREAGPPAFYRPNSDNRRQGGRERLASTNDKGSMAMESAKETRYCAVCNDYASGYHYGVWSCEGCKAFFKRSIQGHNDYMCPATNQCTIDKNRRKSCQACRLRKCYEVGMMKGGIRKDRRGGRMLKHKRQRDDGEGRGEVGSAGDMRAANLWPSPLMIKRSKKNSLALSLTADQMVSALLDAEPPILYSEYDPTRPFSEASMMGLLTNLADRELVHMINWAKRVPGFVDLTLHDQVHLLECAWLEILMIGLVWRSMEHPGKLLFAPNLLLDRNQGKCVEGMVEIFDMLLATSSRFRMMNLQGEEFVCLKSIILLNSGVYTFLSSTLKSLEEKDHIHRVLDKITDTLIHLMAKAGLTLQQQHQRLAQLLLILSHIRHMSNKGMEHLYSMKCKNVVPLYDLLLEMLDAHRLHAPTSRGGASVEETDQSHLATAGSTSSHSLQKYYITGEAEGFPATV

MCF-7 cell lines = assay: MTT antiproliferative assay; assay type: cell-based, human; details: for IC50: Homo sapiens, read-out: MCF-7 (IC50 nM); for MCF-7 antiproliferative potency, fold higher than Ral / MCF-7 antiproliferative potency, fold lower than 3DPQ-12: ratio of IC50 values; for SI: selectivity index [IC50(MDA-MB-231)]/[IC50(MCF-7)]
[1] = Plasma protein binding determination; assay type: in vitro ADME, rat; details: rat plasma, 37 °C, read-out: Rat PPB (%free)
Protocol: Rats were housed at 3 per cage and
The breast cancer was induced after the MNU (Sigma Aldrich CAS No. 684-93-5) administration. An aqueous solution at a concentration of 10 mg/ml was made by wetting the NMU powder with 3% acetic acid and then dissolving it in 0.9% NaCl solution; a fresh solution was prepared for each injection. Rats were given intraperitoneal (i.p.) 50 mg/kg of MNU on the 50th day of age. Animals were divided into different groups with six animals in each group. Group I (intact control) received 0.9% NaCl solution.
Groups II-IV and V-VII were introduced with MNU. Two weeks after MNU treatment, animals were treated orally with synthesized compounds and control substances (5 and 50 mg/kg, for groups II-IV and V-VII, respectively) by gavage once per day for six weeks. Animals in the intact control group and untreated MNU group were given vehicle (Tween 80) according to the experimental protocol. […]
Upon finishing the treatment with synthesized compounds, animals were sacrificed, and plasma, serum, and liver samples were collected. […]
Rat plasma containing either 5 or 50 mg/kg bwt of the tested compounds was incubated at 37°C upper reservoir of the washed Centri-free YM-30 ultrafiltration units (Millipore, Bedford, MA) and then centrifuged for 20 min at 2,000 g. Aliquots of the ultrafiltrates and unfiltered incubation mixtures were analyzed for the total protein concentration by the bicinchoninic acid assay for protein concentration (BCA assay; Pierce, Rockford, IL).

[2] = Serum biochemical markers after treatment of MNU-induced rats; assay type: in vivo, Wistar rats; set-up: TBC: unit not given here; details: for ALP (A/L) / ALT (A/L) / AST (U/L) / γ-GT (U/L): serum; for TBC: total bilirubin content
Method in brief: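 Mammary tumours induced in rats by MNU 50 mg/kg i.p. at day 50; after two weeks, compounds given orally at 5 or 50 mg/kg once daily for six weeks. Serum AST, ALT (340 nm), ALP (405 nm) and bilirubin measured; liver homogenate GSH, CAT, MDA by colorimetry; plasma binding by ultrafiltration at 37°C with BCA protein read-out.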

[3] = Lipophilicity by shake-flask method; details: pH 7.4

| SMILES | Ki (ERα) | IC50 (ERα) | logRBA ERα (ERα) | ERα potency, fold higher than Ral (ERα) | IC50 (MCF-7 cell lines; MCF7, growth inhibition, 48 h) | MCF-7 antiproliferative potency, fold higher than Ral (MCF-7 cell lines) | SI (MCF-7 cell lines) | fraction unbound at 5 mg/kg bwt [1] | fraction unbound at 50 mg/kg bwt [1] | ALP (A/L) ([2]; dose 5 mg/kg) | ALT (A/L) ([2]; dose 5 mg/kg) | AST (U/L) ([2]; dose 5 mg/kg) | γ-GT (U/L) ([2]; dose 5 mg/kg) | ALP (A/L) ([2]; dose 50 mg/kg) | ALT (A/L) ([2]; dose 50 mg/kg) | AST (U/L) ([2]; dose 50 mg/kg) | γ-GT (U/L) ([2]; dose 50 mg/kg) | TBC ([2]; dose 5 mg/kg) | TBC ([2]; dose 50 mg/kg) | logD at 30 min [3] | further results |
| --- | --- | --- | --- | --- | --- | --- | --- | --- | --- | --- | --- | --- | --- | --- | --- | --- | --- | --- | --- | --- | --- |
| CNCCOc1ccc(C(=O)O[C@@H]2/C=C/C(=O)O[C@@H](O)CCC/C=C/[C@@H]3C[C@H](O)C[C@H]32)cc1C(C)=O [Compound 3DPQ-1, (1R,2E,6R,10E,11aS,13S,14aR)-6,13-dihydroxy-4-oxo-4,6,7,8,9,11a,12,13,14,14a-decahydro-1H-cyclopenta[f][1]oxacyclotridecin-1-yl 3-acetyl-4-(2-(methylamino)ethoxy)benzoate] | 0.13 nM | 0.57 ± 0.54 nM | 2.19 ^‡,§ | 1.30 fold | 0.76 ± 0.24 nM | 1.17 fold | 95.31 ^‡,§ | 0.0133 | 0.0122 | 104.53±0.75 A/L | 51.63±0.32 A/L | 44.78±0.61 U/L | 13.54±1.74 U/L | 107.52±0.6 A/L | 53.43±1.34 A/L | 49.54±0.65 U/L | 16.43±0.76 U/L | 15.43±0.32 | 19.41 | 1.94 |  |
| CC(=O)c1cc(C(=O)O[C@@H]2/C=C/C(=O)O[C@@H](O)CCC/C=C/[C@@H]3C[C@H](O)C[C@H]32)ccc1OCCN(C)C [Compound 3DPQ-2, (1R,2E,6R,10E,11aS,13S,14aR)-6,13-dihydroxy-4-oxo-4,6,7,8,9,11a,12,13,14,14a-decahydro-1H-cyclopenta[f][1]oxacyclotridecin-1-yl 3-acetyl-4-(2-(dimethylamino)ethoxy)benzoate] | 0.12 nM | 0.54 ± 0.31 nM | 2.22 ^†,‡,§ | 1.37 fold | 0.73 ± 0.42 nM | 1.21 fold | 99.20 ^‡,§ | 0.0115 | 0.0124 | 98.53±0.14 A/L | 46.89±0.74 A/L | 56.43±0.21 U/L | 16.52±0.42 U/L | 119.47±0.13 A/L | 49.47±0.64 A/L | 59.54±0.32 U/L | 17.35±0.56 U/L | 16.43 | 17.72 | 1.99 |  |
| CC(=O)c1cc(C(=O)OC2/C=C/C(=O)O[C@@H](O)CCC/C=C/[C@@H]3C[C@H](O)C[C@@H]23)ccc1OCCN1CCC=C(C(=O)O)C1 (stereo partly drawn) [Compound 3DPQ-3, 1-(2-(2-acetyl-4-((((2E,6R,10E,11aS,13S,14aR)-6,13-dihydroxy-4-oxo-4,6,7,8,9,11a,12,13,14,14a-decahydro-1H-cyclopenta[f][1]oxacyclotridecin-1-yl)oxy)carbonyl)phenoxy)ethyl)-1,2,5,6-tetrahydropyridine-3-carboxylic acid] | 0.1 nM | 0.44 ± 0.31 nM | 2.31 ^†,‡,§ | 1.68 fold |  | 1.43 fold |  | 0.0134 | 0.0147 | 87.47±0.21 A/L | 49.84±0.59 A/L | 58.43±0.31 U/L | 10.36±0.45 U/L | 86.65±0.44 A/L | 55.84±0.79 A/L | 61.63±0.47 U/L | 11.64±0.84 U/L | 17.54±0.36 | 20.32 | 2.07 | IC50 (MCF-7 cell lines; MCF7, 48 h): 0.61 ± 0.56 nM; MCF-7 antiproliferative potency, fold lower than 3DPQ-12 (MCF-7 cell lines): 1.11 fold |
| CC(=O)c1cc(C(=O)O[C@@H]2/C=C/C(=O)O[C@@H](O)CCC/C=C/[C@@H]3C[C@H](O)C[C@H]32)ccc1OCCN1CC(C(=O)O)=CCC1=O [Compound 3DPQ-9, 1-(2-(2-acetyl-4-((((1R,2E,6R,10E,11aS,13S,14aR)-6,13-dihydroxy-4-oxo-4,6,7,8,9,11a,12,13,14,14a-decahydro-1H-cyclopenta[f][1]oxacyclotridecin-1-yl)oxy)carbonyl)phenoxy)ethyl)-6-oxo-1,2,5,6-tetrahydropyridine-3-carboxylic acid] | 0.1 nM | 0.45 ± 0.14 nM | 2.30 ^†,‡,§ | 1.64 fold | 0.62 ± 0.15 nM | 1.46 fold |  | 0.0128 | 0.0131 | 125.54±0.21 A/L | 46.58±0.94 A/L | 64.52±0.43 U/L | 10.32 U/L | 139.42±0.31 A/L | 51.95±0.86 A/L | 69.76±0.74 U/L | 12.36±0.53 U/L | 22.33 | 24.46 |  | MCF-7 antiproliferative potency, fold lower than 3DPQ-12 (MCF-7 cell lines): 1.09 fold; logD at 30 min ([3]; n-octanol/phosphate buffer): 2.02 |
| CC(=O)c1cc(C(=O)O[C@@H]2/C=C/C(=O)O[C@@H](O)CCC/C=C/[C@@H]3C[C@H](O)C[C@H]32)ccc1OCCN1CCCC(O)C1=O (stereo partly drawn) [Compound 3DPQ-12, (1R,2E,6R,10E,11aS,13S,14aR)-6,13-dihydroxy-4-oxo-4,6,7,8,9,11a,12,13,14,14a-decahydro-1H-cyclopenta[f][1]oxacyclotridecin-1-yl 3-acetyl-4-(2-(3-hydroxy-2-oxopiperidin-1-yl)ethoxy)benzoate] | 0.09 nM | 0.4 ± 0.43 nM | 2.35 ^†,‡,§ | 1.85 fold | 0.56 ± 0.11 nM |  |  | 0.0124 | 0.0131 | 132.67±0.43 A/L | 50.99±0.84 A/L | 51.54±0.74 U/L | 13.53 U/L | 121.33±0.23 A/L | 59.65±0.84 A/L | 52.69±0.95 U/L | 15.54±0.83 U/L | 19.28 | 23.43 | 2.06 |  |
